How the values were obtained:
[1] = Solubility measured with a toluene solution (absorbance of the supernatant of a supersaturated solution); format: physicochemical; conditions: room temperature, from absorbance and molar extinction coefficient
Method: The solubility in toluene at room temperature can be determined from the absorbance in accordance with the Beer-Lambert law. First, a molar extinction coefficient is determined using a fullerene derivative toluene solution of a known concentration. A predetermined amount of the supernatant of a supersaturated fullerene derivative toluene solution is weighed, and the absorbance of this solution is measured. The concentration is calculated from the following equation. C=A/εd wherein C is a concentration; A is an absorbance; ε is a molar extinction coefficient; and d is a cell length for absorbance measurement (1 cm)
The solubility of each fullerene derivative was calculated from the absorbance measured with an ultraviolet-visible absorptiometer.
In advance, the absorbance of the fullerene derivatives of a predetermined concentration was measured to determine the molar extinction coefficient of each compound.
A supersaturated toluene solution of a fullerene derivative was prepared. A predetermined amount of the supernatant of this solution was taken out, and its absorbance was measured.
From the measured absorbance value and the molar extinction coefficient, the concentration of the supernatant of the supersaturated toluene solution was determined.

[2] = LUMO level estimated from cyclic voltammetry (CV); format: physicochemical; conditions: for E1/2^1, half-wave potential of the first reduction wave: CV, 3-electrode system, chlorobenzene:acetonitrile=5:1, n-Bu4NPF6 0.1 mol/L; for LUMO: ELUMO=−(E1/2^1+4.8) eV, from CV
Method: The LUMO level can be measured by a method according to Karakawa et al., Journal of Materials Chemistry A, 2014, vol. 2, p. 20889.
The LUMO level of the fullerene derivatives obtained in Synthesis Examples and the control compounds was estimated from the measured values in cyclic voltammetry (CV).
The measurement was performed in accordance with the experiment section in M. Karakawa et al., Journal of Material Chemistry A, 2014, vol. 2, p. 20889. • Measurement Device: BAS CV-50W Voltammetric Analyzer • Measurement Solvent: Chlorobenzene:Acetonitrile=5:1 • Supporting Electrolyte: n-Bu4NPF6 concentration 0.1 mol/L
The LUMO level is calculated from the half-wave potential E1/2^1 (Fc/Fc^+ benchmark) of the first reduction wave measured by CV (3-electrode system) using the following equation. ELUMO=−(E1/2^1+4.8)ev

CCCCCCC1N(c2ccccc2)CC23C4=c5ccc6c7ccc8c9ccc%10c%11ccc%12c%13c(c%14c%15c2c5c6c2c7c8c5c9c%10c(c%13%11)c%14c5c%152)C13C=%12C=C4 (stereo not drawn) [Control Compound 2, reference compound]
Solubility in Toluene [1]: 1.8%
E1/2^1, half-wave potential of the first reduction wave [2]: −1.14 V vs Fc/Fc^++
LUMO [2]: −3.66 eV

COC(=O)CCCC1(c2ccccc2)C23c4c5c6c7c8c9c(c%10c%11c2c2c%12c4c4c%13c5c5c7c7c8c8c%14c9c%10c9c%10c%11c2c2c%11c%12c4c4c%12c%13c5c5c7c7c8c8c%14c9c9c%10c2c2c%11c4c4c%12c5c7c5c8c9c2c45)C613 (stereo not drawn) [[60]PCBM, [6,6]-phenyl-C61-butyric acid methyl ester, reference compound]
E1/2^1, half-wave potential of the first reduction wave [2]: −1.13 V vs Fc/Fc^++
LUMO [2]: −3.67 eV

CCCCOCC1N(c2ccccc2)C(c2ccccc2)C23c4c5c6c7c8c9c(c%10c%11c2c2c%12c4c4c%13c5c5c7c7c8c8c%14c9c%10c9c%10c%11c2c2c%11c%12c4c4c%12c%13c5c5c7c7c8c8c%14c9c9c%10c2c2c%11c4c4c%12c5c7c5c8c9c2c45)C613 (stereo not drawn) [Compound 4]
Solubility in Toluene [1]: 0.5%
E1/2^1, half-wave potential of the first reduction wave [2]: −1.17 V vs Fc/Fc^++
LUMO [2]: −3.63 eV

C1=CC2=c3ccc4c5ccc6c7ccc8c9ccc%10c%11c%12c%13c%14c(c3c4c3c5c6c4c7c8c(c%119)c%13c4c%143)C23C(c2ccccc2)N(c2ccccc2)CC%123C=%101 (stereo not drawn) [Control Compound 1, reference compound]
Solubility in Toluene [1]: 0.3%
E1/2^1, half-wave potential of the first reduction wave [2]: −1.13 V vs Fc/Fc^++
LUMO [2]: −3.67 eV

CCCCC(CC)CC1N(c2ccccc2)C(c2ccccc2)C23c4c5c6c7c8c9c(c%10c%11c2c2c%12c4c4c%13c5c5c7c7c8c8c%14c9c%10c9c%10c%11c2c2c%11c%12c4c4c%12c%13c5c5c7c7c8c8c%14c9c9c%10c2c2c%11c4c4c%12c5c7c5c8c9c2c45)C613 (stereo not drawn) [Compound 2]
Solubility in Toluene [1]: 1.0%
E1/2^1, half-wave potential of the first reduction wave [2]: −1.17 V vs Fc/Fc^++
LUMO [2]: −3.63 eV

COCCOCCOCC1N(c2ccccc2)C(c2ccccc2)C23c4c5c6c7c8c9c(c%10c%11c2c2c%12c4c4c%13c5c5c7c7c8c8c%14c9c%10c9c%10c%11c2c2c%11c%12c4c4c%12c%13c5c5c7c7c8c8c%14c9c9c%10c2c2c%11c4c4c%12c5c7c5c8c9c2c45)C613 (stereo not drawn) [Compound 3]
Solubility in Toluene [1]: 0.5%
E1/2^1, half-wave potential of the first reduction wave [2]: −1.17 V vs Fc/Fc^++
LUMO [2]: −3.63 eV

CCCCCCC1N(c2ccccc2)C(c2ccccc2)C23c4c5c6c7c8c9c(c%10c%11c2c2c%12c4c4c%13c5c5c7c7c8c8c%14c9c%10c9c%10c%11c2c2c%11c%12c4c4c%12c%13c5c5c7c7c8c8c%14c9c9c%10c2c2c%11c4c4c%12c5c7c5c8c9c2c45)C613 (stereo not drawn) [Compound 1]
Solubility in Toluene [1]: 0.5%
E1/2^1, half-wave potential of the first reduction wave [2]: −1.16 V vs Fc/Fc^++
LUMO [2]: −3.64 eV

CCCCCCC1N(c2ccccc2)C(CC(CC)CCCC)C23c4c5c6c7c8c9c(c%10c%11c2c2c%12c4c4c%13c5c5c7c7c8c8c%14c9c%10c9c%10c%11c2c2c%11c%12c4c4c%12c%13c5c5c7c7c8c8c%14c9c9c%10c2c2c%11c4c4c%12c5c7c5c8c9c2c45)C613 (stereo not drawn) [Compound 8]
Solubility in Toluene [1]: 7.0%

Source: patent US10894770B2, “Fullerene derivative and n-type semiconductor material” (DAIKIN INDUSTRIES, LTD., priority 2015, dated 2021)
